pIC50, pKi: −log10 of the molar value. Converted amounts (≈) assume the structure as drawn. The source made the active and inactive calls. The calls are words filed in the database; no cut-off is given here.
How the values were obtained:
[1] = system: PC-3; experiment: Antiproliferative activity against human PC3 cells assessed as reduction in cell viability incubated for 5 days by Cell-titer Glo reagent based assay; format: functional
[2] = target: Nicotinamide phosphoribosyltransferase (Homo sapiens, UniProt P43490)
Nicotinamide phosphoribosyltransferase, sequence (P43490 whole entry): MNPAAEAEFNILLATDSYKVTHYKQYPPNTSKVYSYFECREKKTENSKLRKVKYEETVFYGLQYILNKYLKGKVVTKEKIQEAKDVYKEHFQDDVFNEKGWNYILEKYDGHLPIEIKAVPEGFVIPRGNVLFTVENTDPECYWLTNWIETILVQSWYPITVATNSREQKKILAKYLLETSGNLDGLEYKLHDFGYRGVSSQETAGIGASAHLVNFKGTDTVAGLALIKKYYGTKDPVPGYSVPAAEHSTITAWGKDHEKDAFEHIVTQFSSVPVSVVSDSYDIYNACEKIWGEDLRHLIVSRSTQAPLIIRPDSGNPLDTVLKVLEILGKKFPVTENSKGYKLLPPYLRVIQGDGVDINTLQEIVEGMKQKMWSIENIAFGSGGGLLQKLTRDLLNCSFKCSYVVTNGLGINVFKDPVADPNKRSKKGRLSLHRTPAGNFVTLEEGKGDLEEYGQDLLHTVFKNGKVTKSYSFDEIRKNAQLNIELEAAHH
Description: Inhibition of C-terminal His-tagged human recombinant NAMPT using FK866 or isoindoline urea-based Oregon green (488) probe incubated for 3 hrs by TR-FRET assay

[3] = system: Liver; experiment: Unbound intrinsic clearance in mouse liver microsomes at 0.5 uM in presence of NADPH incubated for 5 to 30 mins by HPLC-MS/MS method; format: ADME, microsome
[4] = system: Liver; experiment: Unbound intrinsic clearance in human liver microsomes at 0.5 uM in presence of NADPH incubated for 5 to 30 mins by HPLC-MS/MS method; format: ADME, microsome
[5] = target: Cytochrome P450 3A4 (Homo sapiens, UniProt P08684); experiment: Inhibition of CYP3A4 (unknown origin); format: ADME
Cytochrome P450 3A4, sequence (P08684 whole entry): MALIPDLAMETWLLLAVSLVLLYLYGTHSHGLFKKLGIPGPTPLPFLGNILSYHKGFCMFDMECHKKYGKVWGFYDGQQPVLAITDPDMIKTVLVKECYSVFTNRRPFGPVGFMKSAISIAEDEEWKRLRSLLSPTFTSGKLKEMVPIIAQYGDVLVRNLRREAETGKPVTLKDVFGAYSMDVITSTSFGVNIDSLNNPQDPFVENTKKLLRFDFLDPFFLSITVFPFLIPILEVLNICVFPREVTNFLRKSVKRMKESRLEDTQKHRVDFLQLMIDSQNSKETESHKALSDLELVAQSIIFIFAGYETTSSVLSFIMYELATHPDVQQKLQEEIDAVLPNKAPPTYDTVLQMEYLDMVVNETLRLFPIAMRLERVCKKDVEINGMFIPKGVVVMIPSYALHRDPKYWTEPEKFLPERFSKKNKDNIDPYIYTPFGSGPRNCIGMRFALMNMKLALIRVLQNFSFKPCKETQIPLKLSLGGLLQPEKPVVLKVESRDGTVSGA

[6] = target: Cytochrome P450 2C9 (Homo sapiens, UniProt P11712); experiment: Inhibition of CYP2C9 (unknown origin); format: ADME
Cytochrome P450 2C9, sequence (P11712 whole entry): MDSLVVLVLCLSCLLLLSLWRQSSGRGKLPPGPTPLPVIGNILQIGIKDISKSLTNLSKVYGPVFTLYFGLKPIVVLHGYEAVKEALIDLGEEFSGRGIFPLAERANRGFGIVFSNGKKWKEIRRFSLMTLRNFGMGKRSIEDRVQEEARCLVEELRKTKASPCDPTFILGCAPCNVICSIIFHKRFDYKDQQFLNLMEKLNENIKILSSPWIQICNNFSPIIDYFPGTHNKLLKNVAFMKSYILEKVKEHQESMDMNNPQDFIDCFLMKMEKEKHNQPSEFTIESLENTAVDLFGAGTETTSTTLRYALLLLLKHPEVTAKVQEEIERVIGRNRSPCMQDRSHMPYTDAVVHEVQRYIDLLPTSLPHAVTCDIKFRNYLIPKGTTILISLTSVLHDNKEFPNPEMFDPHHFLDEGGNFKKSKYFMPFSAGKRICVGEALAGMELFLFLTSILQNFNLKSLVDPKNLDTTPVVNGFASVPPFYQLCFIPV

[7] = system: Liver; experiment: Unbound intrinsic clearance in rat liver microsomes at 0.5 uM in presence of NADPH incubated for 5 to 30 mins by HPLC-MS/MS method; format: ADME, microsome
[8] = Half life in Sprague-Dawley rat at 1 mg/kg, iv; format: ADME, organism-based; settings: in vivo
[9] = Plasma clearance in Sprague-Dawley rat at 1 mg/kg, iv; format: ADME, organism-based
[10] = system: Rattus norvegicus; experiment: Unbound intrinsic clearance in Sprague-Dawley rat at 1 mg/kg, iv; format: ADME, organism-based; settings: in vivo
[11] = Oral bioavailability in Sprague-Dawley rat at 1 mg/kg; format: ADME, organism-based; settings: in vivo
[12] = system: HCT-116; experiment: Antitumor activity against human HCT116 cells xenografted in CB17 SCID mouse assessed as tumor growth inhibition at 15 mg/kg/day, po dosed daily (3 days on/4 days off per cycle for 3 cycles); format: functional; settings: HCT-116, po, 72 h, read-out: TGI
[13] = Aqueous solubility of the compound; format: physicochemical; settings: buffer
[14] = Half life in Sprague-Dawley rat at 5 mg/kg, iv; format: ADME, organism-based; settings: in vivo
[15] = Plasma clearance in Sprague-Dawley rat at 5 mg/kg, iv; format: ADME, organism-based
[16] = system: Rattus norvegicus; experiment: Unbound intrinsic clearance in Sprague-Dawley rat at 5 mg/kg, iv; format: ADME, organism-based; settings: in vivo
[17] = Oral bioavailability in Sprague-Dawley rat at 5 mg/kg; format: ADME, organism-based; settings: in vivo
[18] = system: NCI-H345; settings: Homo sapiens
Description: Antitumor activity against human NCI-H345 cells xenografted in CB17 SCID mouse assessed as tumor growth inhibition

[19] = system: A2780; settings: Homo sapiens
Description: Antitumor activity against human A2780 cells xenografted in CB17 SCID mouse assessed as tumor growth inhibition

[20] = system: ES2; settings: Homo sapiens
Description: Antitumor activity against human ES2 cells xenografted in CB17 SCID mouse assessed as tumor growth inhibition

[21] = system: U-87 MG; settings: Homo sapiens; U-87MG ATCC
Description: Antitumor activity against human U87MG cells xenografted in CB17 SCID mouse assessed as tumor growth inhibition

[22] = system: H460LM; settings: Homo sapiens
Description: Antitumor activity against human H460LM cells xenografted in CB17 SCID mouse assessed as tumor growth inhibition

| Compound | pIC50 ([1]; pc-3) | pKi [2] | pIC50 ([1]; Homo sapiens, PC-3, 120 h) | CL free [3] [mL/min/kg] | CL free [4] [mL/min/kg] | solubility [13] [µM] | other results |
| --- | --- | --- | --- | --- | --- | --- | --- |
| CC(C)CCNC(=O)c1ccc(NC(=O)N2Cc3ccc(F)cc3C2)cc1 | 8.19 |  |  |  |  |  |  |
| CC(C)(O)CC(=O)N1CCC(c2ccc(NC(=O)N3Cc4ccccc4C3)cc2)CC1 |  | 8.25 | 7.62 | 300 | 58.3 | 3.3 (≈ 1.39 µg/mL) | pIC50 [5]: 4.80; pIC50 [6]: 5.08; CL free [7]: < 56.7 mL/min/kg; half-life [8]: 4.8 h; clearance [9]: 1.83 mL/min/kg; CL free [10]: 28.3 mL/min/kg; bioavailability [11]: 100%; inhibition in vivo at 15 mg/kg/day [12]: 90% |
| CCCNC(=O)c1ccc(NC(=O)N2Cc3ccccc3C2)cc1 | 6.06 |  |  | 71.7 | 56.7 | < 5 |  |
| COc1ccc2c(c1)CN(C(=O)Nc1ccc(C(=O)NCCC(C)C)cc1)C2 | < 5.00 |  |  |  |  |  |  |
| O=C(NCCCc1ccccc1)c1ccc(NC(=O)N2Cc3ccccc3C2)cc1 |  |  | 7.68 |  | 17670 | < 5 |  |
| COc1cc2c(cc1OC)CN(C(=O)Nc1ccc(C(=O)NCCC(C)C)cc1)C2 |  | < 5.05 | < 5.00 |  |  |  |  |
| CC(C)CCn1cc(-c2ccc(NC(=O)N3Cc4ccccc4C3)cc2)cn1 |  |  | 7.49 |  |  | < 5 |  |
| CC(C)CCNC(=O)c1ccc(NC(=O)N2Cc3ccccc3C2)cc1 | 7.42 |  |  | 817 | 250 | < 5 |  |
| CC(C)(C)CCNC(=O)c1ccc(NC(=O)N2Cc3ccccc3C2)cc1 | 7.68 |  |  | 145 | 217 | < 5 |  |
| CC(C)CCNS(=O)(=O)c1ccc(NC(=O)N2Cc3ccccc3C2)cc1 |  |  | < 5.00 | 4420 | 433 | < 5 |  |
| O=C(Nc1ccc(C2CCN(S(=O)(=O)C3CC3)CC2)cc1)N1Cc2ccc(F)cc2C1 |  | 8.41 | 8.19 | 500 | 58.3 |  |  |
| CC(C)C(=O)N1CCC(c2ccc(NC(=O)N3Cc4ccccc4C3)cc2)CC1 |  |  | 7.74 | 367 | 58.3 |  |  |
| O=C(Nc1ccc(C2=CCN(C(=O)c3ccccc3)CC2)cc1)N1Cc2ccccc2C1 |  |  | 8.09 |  | 217 |  |  |
| O=C(Nc1ccc(C2CCN(C(=O)[C@@H]3CCCO3)CC2)cc1)N1Cc2ccc(Cl)cc2C1 |  | 8.77 | 8.10 | 583 | 217 |  |  |
| CC(C)(O)CC(=O)N1CCC(c2ccc(NC(=O)N3Cc4ccc(F)cc4C3)cc2)CC1 |  | 8.60 | 8.49 | 143 | 95 |  |  |
| N#CN=C(NCCCCCCOc1ccc(Cl)cc1)Nc1ccncc1 [CHS-828] |  |  | 8.36 | 1360 | 567 | < 5 |  |
| O=C(Nc1ccc(C2CN(C(=O)c3ccccc3)C2)cc1)N1Cc2ccc(F)cc2C1 |  | 8.72 | 8.41 | 433 | 45 |  |  |
| O=C(NCc1ccccc1)c1ccc(NC(=O)N2Cc3ccccc3C2)cc1 |  |  | 7.17 | 350 | 58.3 | < 5 |  |
| O=C(NCC1CCOC1)c1ccc(NC(=O)N2Cc3ccccc3C2)cc1 (stereo not given) | 7.17 |  |  | 83 | 26.7 | < 5 |  |
| O=C(Nc1ccc(N2CCN(C(=O)c3ccccc3)CC2)cc1)N1Cc2ccccc2C1 |  |  | 7.08 |  | 130 |  |  |
| CC(C)CCC(=O)Nc1ccc(NC(=O)N2Cc3ccccc3C2)cc1 |  | 7.24 | 7.77 | 783 | 60 | < 5 |  |
| O=C(NCC1CCCOC1)c1ccc(NC(=O)N2Cc3ccccc3C2)cc1 (stereo not given) |  |  | 7.77 | 75 | 30 | < 5 |  |
| O=C(NCc1ccc(S(=O)(=O)c2ccccc2)cc1)N1Cc2ccccc2C1 |  |  | < 5.00 | 3670 | 650 |  |  |
| CCC(C)C(=O)N1CCC(Oc2ccc(NC(=O)N3Cc4ccccc4C3)cc2)CC1 (stereo not given) |  |  | 7.32 | 2780 | 633 |  |  |

| Compound | pIC50 ([1]; pc-3) | pKi [2] | pIC50 ([1]; Homo sapiens, PC-3, 120 h) | CL free [3] [mL/min/kg] | CL free [4] [mL/min/kg] | solubility [13] [µM] | other results |
| --- | --- | --- | --- | --- | --- | --- | --- |
| CC1(C(=O)N2CCC(c3ccc(NC(=O)N4Cc5ccccc5C4)cc3)CC2)CC1 |  | 8.37 | 8.18 | 283 | 56.7 |  |  |
| CC(C)CCNC(=O)c1ccc(NC(=O)N2Cc3ccncc3C2)cc1 | 8.08 |  |  |  |  |  |  |
| CC(C)CCNC(=O)c1ccc(NC(=O)N2Cc3ccccc3C2)cn1 | 6.14 |  |  | 1250 | 217 |  |  |
| O=C(Nc1ccc(S(=O)(=O)c2ccccc2)cc1)N1Cc2ccccc2C1 |  | 7.68 | 7.52 | 367 | 73.3 |  |  |
| CC(C)CCNC(=O)c1ccc(NC(=O)N2Cc3ccc(C#N)cc3C2)cc1 |  |  | < 5.00 |  |  |  |  |
| O=C(NC[C@@H]1CCOC1)c1ccc(NC(=O)N2Cc3ccccc3C2)cc1 | 7.25 |  |  |  |  | 17 (≈ 6.21 µg/mL) | pIC50 [5]: < 4.70; pIC50 [6]: < 4.70; CL free [7]: < 46.7 mL/min/kg; half-life [14]: 3 h; clearance [15]: 4.33 mL/min/kg; CL free [16]: 28.3 mL/min/kg; bioavailability [17]: 59%; inhibition in vivo at 15 mg/kg/day [12]: 78%; TGI [18]: Active; TGI [19]: Active; TGI [20]: Active; TGI [21]: Active; TGI [22]: Active |
| O=C(/C=C/c1cccnc1)NCCCCC1CCN(C(=O)c2ccccc2)CC1 [DAPORINAD] |  |  | 8.24 | 258 | 91.7 | < 5 |  |
| CC1(C(=O)N2CCC(c3ccc(NC(=O)N4Cc5ccccc5C4)cc3)CC2)COC1 |  | 8.29 | 7.82 | 145 | 50 |  |  |
| Cc1ccc2c(c1)CN(C(=O)Nc1ccc(C(=O)NCCC(C)C)cc1)C2 |  |  | 8.00 |  |  |  |  |
| CC(C)CCNC(=O)c1ccc(NC(=O)N2Cc3ccc(CO)cc3C2)cc1 |  |  | 8.85 |  |  |  |  |
| CC(C)C[C@@H](CO)NC(=O)c1ccc(NC(=O)N2Cc3ccccc3C2)cc1 |  |  | 7.18 | 115 | 56.7 | < 5 |  |
| CC(C)CCNC(=O)c1cccc(NC(=O)N2Cc3ccccc3C2)c1 |  | < 5.05 | < 4.90 |  |  |  |  |
| O=C(Nc1ccc(C(=O)N2CCN(c3ccccn3)CC2)cc1)N1Cc2ccccc2C1 |  |  | 7.72 | 183 | 63.3 | < 5 |  |
| NC(=O)c1ccc(NC(=O)N2Cc3ccccc3C2)cc1 | 5.10 |  |  | 148 | 20 | < 5 |  |
| CN1CCC(C(=O)N2CCC(c3ccc(NC(=O)N4Cc5ccc(F)cc5C4)cc3)CC2)CC1 |  | 8.03 | 8.25 | 267 | 41.7 |  |  |
| CC(C)CCNC(=O)c1ccc(NC(=O)N2Cc3cccc(Cl)c3C2)cc1 | 6.19 |  |  |  |  |  |  |
| O=C(NCCCCC1CCN(C(=O)c2ccccc2)CC1)N1Cc2ccccc2C1 |  |  | 8.08 | 4670 | 317 |  |  |
| CC(C)CCNC(=O)c1ccc(NC(=O)N2Cc3ccc(C(F)(F)F)cc3C2)cc1 | < 5.00 |  |  |  |  |  |  |
| CN1CCN(C(C)(C)C(=O)N2CCC(c3ccc(NC(=O)N4Cc5ccccc5C4)cc3)CC2)CC1 |  | 8.82 | 8.64 | 1470 | 733 |  |  |
| O=C(Nc1ccc(C2CCN(C(=O)c3ccccc3)CC2)cc1)N1Cc2ccccc2C1 |  |  | 8.55 | 983 | 183 |  |  |
| COC(=O)c1ccc(NC(=O)N2Cc3ccccc3C2)cc1 | 5.64 | 6.95 |  |  |  | < 5 |  |
| CC(C)CCNC(=O)c1ccc(NC(=O)N2Cc3ccccc3C2)nc1 | 7.85 |  |  | 283 | 53.3 |  |  |
| Cc1ccc(NC(=O)N2Cc3ccccc3C2)cc1 | < 5.00 | 5.66 |  |  |  | < 5 |  |
| CN(CCC(C)(C)C)C(=O)c1ccc(NC(=O)N2Cc3ccccc3C2)cc1 |  | 6.80 | 5.96 | 2170 | 2000 | < 5 |  |

Source: ChEMBL document CHEMBL4033748, “SAR and characterization of non-substrate isoindoline urea inhibitors of nicotinamide phosphoribosyltransferase (NAMPT)” (Bioorg Med Chem Lett, 2017)
